The numbers were not newly measured in US20110184379A1, “METHOD AND SYSTEM TO DEFINE PATIENT SPECIFIC THERAPEUTIC REGIMENS BY MEANS OF PHARMACOKINETIC AND PHARMACODYNAMIC TOOLS” (MEDTRONIC, INC., priority 2008, published 2011), which cites them from elsewhere.

Data set [1] has as its system HCV.
Data set [2] relates to HCV. As to conditions: for viral load reduction: oral.
Data set [3] relates to HCV. This is another data set of the same source.
The conditions of data set [4]: preliminary review of blinded data, four completed cohorts.
Data set [5] deals with genotype 1 HCV polymerases.
Another data set relates to HCV genotype 1. Particulars: 5 days of dosing.
In data set [6] the test system is Hepatitis C virus replicon.
Data set [7] concerns HCV. The source holds these as a separate data set.
A further data set deals with HCV genotype-1. As to conditions: 14-day course.
Data set [8] has as its system chronic hepatitis C virus (HCV) genotype 1. Particulars: for SVR at 24 weeks after the end of treatment (SVR 24): 28-week Boceprevir arm.
Data set [9] deals with HCV. The source holds these as a separate data set.

Where two headings read alike, the source gives them in different places.

Turning to `NC(=O)c1ncn([C@@H]2O[C@H](CO)[C@@H](O)[C@H]2O)n1` [ribavirin, 1-β-D-ribofuranosyl-1H-1,2,4-triazole-3-carboxamide], the efficacy entry in the data set with HCV [1] (monotherapy) was “negligible efficacy”.

`[N-]=[N+]=N[C@]1(CO)O[C@@H](n2ccc(N)nc2=O)[C@H](O)[C@@H]1O` [R1626, 4′-azidocytidine]: the values for the viral load reduction in the data set on HCV [2] (100 mg dose (so in the source)), in the data set with HCV [2] (300 mg dose (so in the source)) and in the data set on HCV [2] (4500 mg dose) were 1.2 log 10, 2.6 log 10 and 3.7 log 10, respectively. Besides, in the data set on HCV [2] (human, in vivo), the viral resistance result is on record as “No viral resistance was found”. Besides, in the data set with HCV [2] (increasing adverse events at the highest dose (4500 mg)), the tolerability entry is reported as “generally well-tolerated”. Further, the “End-of-Treatment Response” value in the data set with HCV [3] (4 weeks R1626 + Peginterferon Alfa-2a (40 kd) + Ribavirin, then 44 weeks Peginterferon Alfa-2a + Ribavirin) is 84%. Also, the barrier to resistance entry in the data set on HCV [3] (in vivo) is recorded as “high barrier to resistance”.

For `CC(C)(C)OC(=O)N[C@H]1CCCCC/C=C\[C@@H]2C[C@@]2(C(=O)NS(=O)(=O)C2CC2)NC(=O)[C@@H]2C[C@@H](OC(=O)N3Cc4cccc(F)c4C3)CN2C1=O` [ITMN-191], the safety and tolerability result (preliminary safety data, doses intended for Phase 1b) is “well tolerated and safe”; the safety and tolerability entry in data set [4] is “safe and well-tolerated”. For the same compound, the serious adverse events entry (single ascending dose, healthy subjects) is on record as “no serious adverse events were reported”.

Consider `COC[C@H]1C[C@@](Cn2cccn2)(C(=O)O)N(C(=O)c2ccc(C(C)(C)C)c(OC)c2)[C@H]1c1nccs1` [GSK625433], for which, in data set [5], the “inhibition of genotype 1 HCV polymerases” value is “highly potent and selective inhibitor”; the “interaction with interferon in vitro” value is reported as “synergistic”.

Take `COc1ccc2c(O[C@@H]3C[C@H]4C(=O)N[C@]5(C(=O)NS(=O)(=O)C6CC6)C[C@H]5/C=C\CCCCN(C)C(=O)[C@@H]4C3)cc(-c3nc(C(C)C)cs3)nc2c1C` [TMC435350]: the tolerability entry with HCV genotype 1 is on record as “well tolerated”. In addition, the antiviral activity entry in the data set with HCV genotype 1 (genotype 1 infected individuals) was “strong and rapid antiviral activity”. In addition, in data set [6] (combination with interferon), the appearance of drug-resistance entry is on record as “suppress the appearance of drug-resistance”. Moreover, in data set [6] (combination with interferon, replicon model), the RNA reduction is on record as greater than 4 logs. The “effect on Hepatitis C virus replication” value in data set [6] (replicon experiments, via protease inhibition) was “reduce the amount of Hepatitis C virus replication”.

Regarding interferon-α, in the data set with HCV [7] (IFN or IFN plus ribavirin), the “delay before HCV RNA decline” value was 7 to 10 h. The “fall of HCV RNA in the first phase (1-2 days), on average” value in the data set with HCV [7] (genotype 1 infected patients) is listed as 1-2 logs. In addition, in the data set with HCV [1] (ribavirin combined with interferon-α, genotype 1 population), the “therapeutic effectiveness of the combination” value was 29%.

Regarding `CC(C)(C)NC(=O)N[C@H](C(=O)N1C[C@H]2[C@@H]([C@H]1C(=O)NC(CC1CCC1)C(=O)C(N)=O)C2(C)C)C(C)(C)C` (some centres unmarked) [SCH503034], the “maximum HCV RNA reduction” value in the data set on HCV genotype-1 (400 mg group) was “more than 2 logs”. In addition, in the data set with HCV genotype-1, the safety and tolerability entry was “safe and well-tolerated with no serious adverse events”. Also, the “SVR at 24 weeks after the end of treatment (SVR 24)” value is 56% in data set [8] (lead-in) and 55% in data set [8] (no lead-in). For the same compound, in data set [8] (48-week regimen, 4 weeks PEGINTRON + REBETOL lead-in before Boceprevir 800 mg TID, ITT), the “SVR rate at 12 weeks after the end of treatment (SVR 12)” value is given as 74%. For the same compound, the “SVR 12” value in data set [8] (48 weeks Boceprevir + PEGIntron + REBETOL from the beginning, no P/R lead-in) was 66%. Besides, the “SVR (ITT) in patients with rapid virologic response (RVR)” value in data set [8] (lead-in, 28-week regimen) is listed as 82%; in [8] (lead-in, 48 week regimen) it was 92%.

With `CC(C)C(=O)OC[C@H]1O[C@@H](n2ccc(N)nc2=O)[C@](C)(F)[C@@H]1OC(=O)C(C)C` [R71278], the “decrease in HCV RNA (viral load)” value in the data set on HCV [9] (1,500 mg twice-daily arm) is recorded as greater than 99%. For the same compound, in the data set with HCV [9] (in vivo), the “antiviral activity across all dosing arms” value is given as “dose-dependent antiviral activity”; the safety and tolerability result was “generally safe and well-tolerated with no serious adverse events”.
